{"source": "patent US20240025892A1", "about": "(priority 2020, published 2024)", "key": {"SIK1": {"target": "SIK1 (Homo sapiens (Human), UniProt P57059)", "sequence (P57059 whole entry)": "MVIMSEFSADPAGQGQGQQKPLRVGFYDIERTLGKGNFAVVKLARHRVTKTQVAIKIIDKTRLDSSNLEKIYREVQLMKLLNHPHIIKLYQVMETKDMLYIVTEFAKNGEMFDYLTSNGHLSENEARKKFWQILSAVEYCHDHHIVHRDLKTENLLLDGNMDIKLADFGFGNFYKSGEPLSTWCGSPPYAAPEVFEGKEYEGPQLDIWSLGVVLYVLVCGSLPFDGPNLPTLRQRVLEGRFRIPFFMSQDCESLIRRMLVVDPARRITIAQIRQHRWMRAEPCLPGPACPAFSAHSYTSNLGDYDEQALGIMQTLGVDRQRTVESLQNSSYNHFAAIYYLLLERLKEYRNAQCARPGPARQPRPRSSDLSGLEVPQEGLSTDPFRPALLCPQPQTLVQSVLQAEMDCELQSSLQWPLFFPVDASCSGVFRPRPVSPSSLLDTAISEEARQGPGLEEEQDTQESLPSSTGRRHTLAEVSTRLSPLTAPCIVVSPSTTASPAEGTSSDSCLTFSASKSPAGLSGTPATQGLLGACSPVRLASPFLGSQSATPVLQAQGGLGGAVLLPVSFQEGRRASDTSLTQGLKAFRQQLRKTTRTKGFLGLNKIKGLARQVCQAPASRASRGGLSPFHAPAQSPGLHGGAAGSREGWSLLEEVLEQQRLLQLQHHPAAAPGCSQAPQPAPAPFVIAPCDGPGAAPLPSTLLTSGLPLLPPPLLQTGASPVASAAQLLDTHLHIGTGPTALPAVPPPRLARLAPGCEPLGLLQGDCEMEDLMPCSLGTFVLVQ", "assay": "In vitro SIK1 kinase assay", "type": "biochemical", "experimental": "(§1) Assays were performed in base reaction buffer (20 mM Hepes (pH 7.5), 10 mM MgCl2, 1 mM EGTA, 0.02% Brij35, 0.02 mg/mL BSA, 0.1 mM Na3VO4, 2 mM DTT, 1% DMSO). Compounds were dissolved in 100% DMSO in a 10 mM stock. […] Assays were performed for 20 minutes at room temperature, after which time ^33P-ATP (10 μCi/μL) was added followed by incubation for another 120 minutes at room temperature. Thereafter, radioactivity incorporated into the pEY peptide substrate was detected by filter-binding method. Kinase activity data were expressed as the percent remaining kinase activity in test samples compared to DMSO reactions. IC50 values and curve fits were obtained using Prism (GraphPad Software)."}, "RANKL": {"system": "RANKL", "assay": "RANKL gene expression in Ocy454 cells (RT-qPCR)", "conditions": "for RANKL expression: 4 hours, RT-qPCR"}, "[1]": {"target": "NanoLuc-SIK2 fusion in HEK293 cells (Homo sapiens (Human), UniProt Q9H0K1)", "sequence (Q9H0K1 whole entry, the tested form may be a part)": "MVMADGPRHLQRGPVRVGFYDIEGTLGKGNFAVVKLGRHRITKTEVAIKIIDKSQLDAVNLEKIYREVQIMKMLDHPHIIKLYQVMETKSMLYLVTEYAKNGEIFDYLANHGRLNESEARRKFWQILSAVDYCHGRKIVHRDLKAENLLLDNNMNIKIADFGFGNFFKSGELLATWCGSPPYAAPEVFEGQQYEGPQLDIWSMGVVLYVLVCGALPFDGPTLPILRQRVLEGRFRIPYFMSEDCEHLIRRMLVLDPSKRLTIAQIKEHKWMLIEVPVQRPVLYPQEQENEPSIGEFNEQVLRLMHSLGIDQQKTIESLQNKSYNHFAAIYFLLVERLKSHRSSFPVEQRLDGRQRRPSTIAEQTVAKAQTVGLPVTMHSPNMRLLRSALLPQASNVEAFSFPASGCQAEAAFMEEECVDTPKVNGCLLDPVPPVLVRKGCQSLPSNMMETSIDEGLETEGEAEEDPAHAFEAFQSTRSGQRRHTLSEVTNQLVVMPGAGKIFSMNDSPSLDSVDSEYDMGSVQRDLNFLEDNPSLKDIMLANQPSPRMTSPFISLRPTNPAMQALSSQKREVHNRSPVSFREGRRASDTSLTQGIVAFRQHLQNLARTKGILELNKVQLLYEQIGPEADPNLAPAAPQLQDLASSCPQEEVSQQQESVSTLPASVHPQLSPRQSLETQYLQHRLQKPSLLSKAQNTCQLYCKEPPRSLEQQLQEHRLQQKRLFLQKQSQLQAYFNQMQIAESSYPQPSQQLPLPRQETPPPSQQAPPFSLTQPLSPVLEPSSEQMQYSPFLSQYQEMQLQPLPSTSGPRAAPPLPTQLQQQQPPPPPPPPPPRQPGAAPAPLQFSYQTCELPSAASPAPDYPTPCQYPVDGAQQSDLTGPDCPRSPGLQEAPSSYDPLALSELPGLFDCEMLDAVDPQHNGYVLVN", "assay": "cell-based", "conditions": "HEK293T cells; read-out: IC50 for SIK2 (nanoBRET)"}, "Recombinant SIK2": {"target": "Recombinant SIK2 (Homo sapiens (Human), UniProt Q9H0K1)", "sequence (Q9H0K1 whole entry)": "as the sequence (Q9H0K1 whole entry, the tested form may be a part) above", "assay": "biochemical", "conditions": "recombinant SIK2 2.5 nM, 1 μM ATP; read-out: SIK2 IC50"}, "SIK3 in HEK293T cells": {"target": "SIK3 in HEK293T cells (Homo sapiens (Human), UniProt Q9Y2K2)", "sequence (Q9Y2K2 whole entry)": "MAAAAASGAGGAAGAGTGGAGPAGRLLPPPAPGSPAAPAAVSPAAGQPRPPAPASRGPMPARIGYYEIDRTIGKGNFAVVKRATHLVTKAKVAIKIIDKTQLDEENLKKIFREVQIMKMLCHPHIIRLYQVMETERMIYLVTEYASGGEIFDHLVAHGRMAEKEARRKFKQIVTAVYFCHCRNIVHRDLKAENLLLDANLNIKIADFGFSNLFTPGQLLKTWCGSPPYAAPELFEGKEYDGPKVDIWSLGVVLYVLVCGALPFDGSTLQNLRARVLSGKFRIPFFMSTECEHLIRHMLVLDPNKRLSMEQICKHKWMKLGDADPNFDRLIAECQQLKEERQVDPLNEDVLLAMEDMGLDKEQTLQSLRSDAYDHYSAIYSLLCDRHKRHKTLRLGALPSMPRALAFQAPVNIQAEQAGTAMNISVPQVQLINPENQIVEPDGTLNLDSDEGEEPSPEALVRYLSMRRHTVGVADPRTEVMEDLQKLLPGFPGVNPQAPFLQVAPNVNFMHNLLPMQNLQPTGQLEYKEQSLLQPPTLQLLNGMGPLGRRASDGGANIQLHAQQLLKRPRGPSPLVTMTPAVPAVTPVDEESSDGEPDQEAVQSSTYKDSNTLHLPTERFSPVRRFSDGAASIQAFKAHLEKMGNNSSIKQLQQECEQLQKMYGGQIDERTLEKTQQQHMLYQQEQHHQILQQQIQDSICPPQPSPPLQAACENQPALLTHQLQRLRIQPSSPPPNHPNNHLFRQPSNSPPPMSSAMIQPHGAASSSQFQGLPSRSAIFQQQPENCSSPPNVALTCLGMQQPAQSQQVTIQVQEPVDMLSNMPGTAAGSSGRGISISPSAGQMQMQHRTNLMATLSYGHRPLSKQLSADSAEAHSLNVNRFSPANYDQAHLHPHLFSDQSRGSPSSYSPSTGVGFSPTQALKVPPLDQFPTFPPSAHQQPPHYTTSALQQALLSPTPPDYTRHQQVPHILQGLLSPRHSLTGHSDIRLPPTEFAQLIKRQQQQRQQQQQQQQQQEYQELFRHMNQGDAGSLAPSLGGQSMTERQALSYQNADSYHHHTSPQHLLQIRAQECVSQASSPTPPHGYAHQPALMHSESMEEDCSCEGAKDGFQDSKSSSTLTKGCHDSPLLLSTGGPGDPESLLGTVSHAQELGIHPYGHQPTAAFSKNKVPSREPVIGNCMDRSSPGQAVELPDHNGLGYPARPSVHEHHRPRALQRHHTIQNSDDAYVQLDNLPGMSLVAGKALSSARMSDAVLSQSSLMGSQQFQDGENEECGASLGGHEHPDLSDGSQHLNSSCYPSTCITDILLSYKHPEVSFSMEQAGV", "assay": "cell-based", "conditions": "read-out: IC50 for SIK3 (nanoBRET)"}, "SIK3": {"target": "SIK3 (Homo sapiens (Human), UniProt Q9Y2K2)", "sequence (Q9Y2K2 whole entry)": "as above", "assay": "In vitro SIK3 kinase assay", "type": "biochemical", "experimental": "as §1"}, "SIK1 in HEK293T cells": {"target": "SIK1 in HEK293T cells (Homo sapiens (Human), UniProt P57059)", "sequence (P57059 whole entry)": "as the sequence (P57059 whole entry) above", "assay": "cell-based", "conditions": "read-out: IC50 for SIK1 (nanoBRET)"}, "[2]": {"system": "eugonadal 8 week old male mice", "assay": "3-week mouse study: serum mineral metabolism parameters and bone turnover markers", "type": "in vivo", "conditions": "for serum CTX (bone resorption marker) / serum P1NP (bone formation marker): 40 mg/kg oral, 21 days, compared to vehicle; for serum 1,25-vitamin D / serum BUN / serum PTH levels / serum calcium / serum phosphorus: after 21 days of treatment, 2 hours after final dose", "experimental": ". In addition, one group of mice with oral vehicle solution (negative control) and another group of mice were treated with once daily subcutaneous hPTH(1-34) (80 μg/kg) injections (positive control). […]. Serum mineral metabolism parameters were measured in mice in all 5 treatment groups after 21 days of treatment (serum was collected 2 hours after the final treatment dose). […]. Serum bone turnover markers (P1NP, a marker of bone formation; CTX, a marker of bone resorption) were next measured on samples collected after 21 days of treatment. […]"}, "[3]": {"assay": "3-week mouse study: tolerability and serum drug levels", "type": "in vivo, mice", "experimental": "[…]. For oral gavage, cmpd. 51 was dissolved in vehicle solution of 15% hydroxy-propyl beta-cyclodextrin in sterile water.\n(§2) […]. In addition, one group of mice with oral vehicle solution (negative control) and another group of mice were treated with once daily subcutaneous hPTH(1-34) (80 μg/kg) injections (positive control). […]."}, "[4]": {"assay": "Initial mouse pharmacokinetic study", "type": "in vivo"}, "CRTC2 (TORC2)": {"system": "CRTC2 (TORC2)", "assay": "CRTC2 nuclear translocation (PathHunter U2OS)", "type": "cell-based", "procedure,_shortened": "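U2OS enzyme-fragment complementation cells (ED-tagged CRTC2, EA-tagged nuclear TAZ domain) treated 90 minutes, duplicate 5-point 4-fold dilutions from 10 μM. Chemiluminescent substrate signal; maximal translocation expressed as percent of forskolin-stimulated signal.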"}, "HDAC4/5": {"system": "HDAC4/5", "assay": "HDAC4/5 phosphorylation immunoblot in Ocy454 cells", "type": "cell-based", "conditions": "2 hours", "experimental": "Immunoblotting was performed as previously described (see e.g., Wein et al, Nature Communications, 2016, 7:13176; and Sato et al, Nature Communications, 2020, 11(1):3282). […]. Adherent cells were washed with ice cold PBS, then scraped into TNT buffer on ice. Material was then transferred into Eppendorf tubes kept on ice, vortexed at top speed for 30 seconds, then centrifuged at top speed for 6 minutes at 4° C. For subcellular fractionation, cells were initially resuspended in hypotonic lysis buffer (20 mM HEPES, 10 mM KCl, 1 mM MgCl2, 0.1% Triton X-100, 5% glycerol supplemented with DTT, protease inhibitors, and phosphatase inhibitors) for 5 minutes on ice. Nuclear pellets were spun down at 5,000 rpm for 5 minutes, and the supernatant was saved as the cytoplasmic lysate. Thereafter, the nuclear pellet was washed once in 1 mL hypotonic lysis buffer. The nuclear pellet was then resuspended in hypertonic lysis buffer (20 mM HEPES, 400 mM NaCl, 1 mM EDTA, 0.1% Triton X-100, 5% glycerol supplemented with DTT, protease inhibitors, and phosphatase inhibitors), followed by vortexing twice for 30 seconds. Debris was spun down at 14,000 rpm for 5 minutes, and the supernatant was saved as the nuclear lysate. For immunoblotting, lysates or immunoprecipitates were separated by SDS-PAGE and proteins were transferred to nitrocellulose. Membranes were blocked with 5% milk in tris-buffered saline plus 0.05% Tween-20 (TBST) and incubated with primary antibody overnight at 4° C. The next day, membranes were washed, incubated with appropriate HRP-coupled secondary antibodies, and signals detected with ECL Western Blotting Substrate (Pierce), ECL Plus Western Blotting Substrate (Pierce), or SuperSignal West Femto Maximum Sensitivity Substrate (Thermo scientific). The primary antibodies phospho-HDAC4/5/7 (S246/S259/S155) (Cell Signaling Technology, 3443) and total HDAC5 (Assay Biotech, C0225)."}, "[5]": {"system": "bone cell marker genes, sclerostin", "assay": "3-week mouse study: cortical bone RT-qPCR and sclerostin immunohistochemistry", "type": "in vivo, mice", "conditions": "3 weeks of treatment", "experimental": ". For this, cortical bone RNA isolated from mice following three weeks of cmpd. 51 treatment were analyzed and subjected to RT-qPCR for well-established bone cell marker genes. […]. […] Therefore, sclerostin (encoded by the Sost gene) expression in bone in response to cmpd. 51 treatment was also assessed by RT-qPCR and immunohistochemistry. […]. Cmpd. 55A (FIG. 17) was also identified. […]"}, "SOST": {"system": "SOST", "assay": "SOST gene expression in Ocy454 cells (RT-qPCR)", "type": "cell-based", "conditions": "4 hours"}, "[6]": {"system": "eugonadal 8 week old male mice", "assay": "3-week mouse study: femur microCT", "type": "in vivo", "conditions": "3 weeks; for midshaft cortical bone tissue mineral density (TMD), microCT: femur", "experimental": "as §2"}, "[7]": {"system": "eugonadal 8 week old male mice", "assay": "3-week mouse study: tibia histology and femur histomorphometry", "type": "in vivo", "conditions": "3 weeks", "experimental": "as §2"}}, "note": "“Also recorded” adds a separate entry of the source.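 Throughout, for RANKL Fold Induction: Ocy454 cells moved to 37 °C for osteocytic differentiation before compound exposure, RANKL mRNA by SYBR Green qRT-PCR, 2^−ΔΔCT with β-actin normalization, duplicate wells.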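 Throughout, for RANKL expression: Ocy454 cells moved to 37 °C for osteocytic differentiation before compound exposure, RANKL mRNA by SYBR Green qRT-PCR, 2^−ΔΔCT with β-actin normalization, duplicate wells.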"}
{"molecule": "CCc1nnc(-c2c(OC)cc(-c3cnc4cc(-c5cnn(C6CC6)c5)ccn34)cc2OC)o1", "note": "[Example 55, 2-[4-[7-(1-Cyclopropylpyrazol-4-yl)imidazo[1,2-a]pyridin-3-yl]-2,6-dimethoxy-phenyl]-5-ethyl-1,3,4-oxadiazole]", "values": [{"measurement": "IC50", "setting": "SIK1", "value": 16, "unit": "nM"}, {"measurement": "RANKL Fold Induction", "setting": "RANKL; maximal RANKL fold induction versus DMSO, four hours", "value": 22.80, "unit": "fold"}, {"measurement": "IC50", "setting": "[1]", "value": 12.2, "unit": "nM"}, {"measurement": "IC50", "setting": "Recombinant SIK2", "value": 1.48, "unit": "nM"}, {"measurement": "IC50", "setting": "SIK3 in HEK293T cells", "value": 4.48, "unit": "nM"}, {"measurement": "IC50", "setting": "SIK3", "value": 2.66, "unit": "nM"}, {"measurement": "IC50", "setting": "SIK1 in HEK293T cells", "value": 2100, "unit": "nM"}]}
{"molecule": "CCc1nnc(-c2c(OC)cc(-c3cnc4cc(-c5cnn(C)c5)ccn34)cc2OC)o1", "note": "[Example 51, 2-[2,6-Dimethoxy-4-[7-(1-methylpyrazol-4-yl)imidazo[1,2-a]pyridin-3-yl]phenyl]-5-ethyl-1,3,4-oxadiazole]", "values": [{"measurement": "serum CTX (bone resorption marker)", "setting": "[2]; listed as Cmpd. 51", "value": "increasing this marker of bone remodeling"}, {"measurement": "serum P1NP (bone formation marker)", "setting": "[2]; listed as Cmpd. 51", "value": "increasing this marker of bone remodeling"}, {"measurement": "serum CTX (bone resorption marker)", "setting": "[2]; listed as cmpd. 51", "value": "increased"}, {"measurement": "serum P1NP (bone formation marker)", "setting": "[2]; listed as cmpd. 51", "value": "increased P1NP"}, {"measurement": "serum 1,25-vitamin D", "setting": "[2]; listed as Cmpd. 51", "value": "increased serum 1,25-vitamin D"}, {"measurement": "serum BUN", "setting": "[2]; listed as Cmpd. 51", "value": "did not affect serum BUN levels"}, {"measurement": "serum PTH levels", "setting": "[2]; listed as Cmpd. 51", "value": "suppressed PTH levels"}, {"measurement": "serum calcium", "setting": "[2]; listed as Cmpd. 51", "value": "increased serum calcium"}, {"measurement": "serum phosphorus", "setting": "[2]; listed as Cmpd. 51", "value": "did not affect serum phosphorus levels"}, {"measurement": "serum 1,25-vitamin D", "setting": "[2]; listed as cmpd. 51", "value": "increased 1,25-vitamin D levels"}, {"measurement": "serum BUN", "setting": "[2]; listed as cmpd. 51", "value": "did not alter"}, {"measurement": "serum PTH levels", "setting": "[2]; listed as cmpd. 51", "value": "reduced serum PTH levels"}, {"measurement": "serum calcium", "setting": "[2]; listed as cmpd. 51", "value": "increased calcium"}, {"measurement": "serum phosphorus", "setting": "[2]; listed as cmpd. 51", "value": "did not alter"}, {"measurement": "RANKL expression", "setting": "RANKL", "value": "stimulates RANKL expression"}, {"measurement": "RANKL expression", "setting": "RANKL; listed as cmpd. 51", "value": "increased RANKL; also recorded: induction of RANKL"}, {"measurement": "serum drug levels", "setting": "[3]; 2 hours after oral gavage on day 13, 3 dose groups", "value": "increased in a dose-dependent manner; also recorded: Dose-dependent increases"}, {"measurement": "tolerability (health concerns, weight loss, toxicities)", "setting": "[3]; mice, once daily oral gavage for 3 weeks", "value": "without obvious health concerns or weight loss; also recorded: without obvious toxicities"}, {"measurement": "oral availability", "setting": "[4]; single dose of 10 mg/kg", "value": "excellent oral availability"}, {"measurement": "maximum serum concentration", "setting": "[4]; single oral dose of 10 mg/kg", "value": 11, "unit": "µM"}, {"measurement": "EC50", "setting": "CRTC2 (TORC2); Homo sapiens, U2OS, read-out: CRTC2 nuclear translocation EC50", "value": 147, "unit": "nM"}, {"measurement": "CRTC2 Efficacy (% of forskolin)", "setting": "CRTC2 (TORC2); maximal CRTC2 nuclear translocation, U2OS cells, 90 minutes, maximum dose 10 μM", "value": "86.5 % of forskolin"}, {"measurement": "HDAC4/5 phosphorylation", "setting": "HDAC4/5", "value": "reduces levels of HDAC4/5 phosphorylation"}, {"measurement": "HDAC4/5 phosphorylation", "setting": "HDAC4/5; listed as Cmpd. 51", "value": "reduced phosphorylated HDAC4/5 levels"}, {"measurement": "HDAC4/5 phosphorylation", "setting": "HDAC4/5; listed as cmpd. 51", "value": "dose-dependent reduction of phosphorylation"}, {"measurement": "Ctsk (cathepsin K) expression in cortical bone", "setting": "[5]; RT-qPCR", "value": "expression was increased; also recorded: increases the expression"}, {"measurement": "Sost mRNA (sclerostin gene expression) in cortical bone", "setting": "[5]; RT-qPCR", "value": "reduced sclerostin gene expression"}, {"measurement": "Spp1 (osteopontin) expression in cortical bone", "setting": "[5]; RT-qPCR", "value": "expression was increased; also recorded: increases the expression of Spp1"}, {"measurement": "sclerostin protein levels in bone", "setting": "[5]; immunohistochemistry", "value": "reduced"}, {"measurement": "SOST expression", "setting": "SOST", "value": "reduces SOST"}, {"measurement": "SOST expression", "setting": "SOST; listed as cmpd. 51", "value": "suppressed SOST expression; also recorded: suppression of SOST expression"}, {"measurement": "primary spongiosa bone mineral density (BMD), microCT", "setting": "[6]; distal femur, 40 mg/kg", "value": "increased bone mineral density (BMD)"}, {"measurement": "primary spongiosa bone volume fraction (BV/TV), microCT", "setting": "[6]; distal femur, 40 mg/kg", "value": "increased primary spongiosa bone volume fraction (BV/TV)"}, {"measurement": "midshaft cortical bone tissue mineral density (TMD), microCT", "setting": "[6]; listed as Cmpd. 51", "value": "increased cortical bone tissue mineral density"}, {"measurement": "midshaft cortical bone tissue mineral density (TMD), microCT", "setting": "[6]; listed as cmpd. 51", "value": "gains in bone mass"}, {"measurement": "TRAP-positive osteoclasts (tibia sections)", "setting": "[7]; cmpd. 51 40 mg/kg", "value": "increased TRAP-positive osteoclasts"}, {"measurement": "osteoblasts (tibia sections)", "setting": "[7]; cmpd. 51 40 mg/kg", "value": "increased osteoblasts"}, {"measurement": "trabecular bone (tibia sections, hematoxylin and eosin)", "setting": "[7]; cmpd. 51 40 mg/kg", "value": "increased trabecular bone mass"}, {"measurement": "bone formation rate (BFR/BS), histomorphometry", "setting": "[7]; distal femur metaphysis", "value": "increased the bone formation rate"}, {"measurement": "bone volume fraction (BV/TV), histomorphometry", "setting": "[7]; distal femur metaphysis", "value": "increased bone volume fraction (BV/TV); also recorded: increased trabecular bone mass"}, {"measurement": "matrix apposition rate (MAR), histomorphometry", "setting": "[7]; distal femur metaphysis", "value": "increased matrix apposition rate"}, {"measurement": "mineralizing surface (MS/BS), histomorphometry", "setting": "[7]; distal femur metaphysis", "value": "Neither cmpd. 51 nor PTH treatment increased"}, {"measurement": "osteoblast surfaces (Ob.S.BS), histomorphometry", "setting": "[7]; distal femur metaphysis", "value": "increased osteoblast surfaces"}, {"measurement": "osteoclast numbers (N.Oc/B.Pm), histomorphometry", "setting": "[7]; distal femur metaphysis", "value": "increased osteoclast numbers"}]}
